Converted amounts (≈) assume the structure as drawn.
Assay: Inhibition of bovine thymus p56-LCK protein tyrosine kinase activity
Set-up: species or system Bos taurus

Row | IC50 [µg/mL] | SMILES
1 | 4 (≈ 14.8 µM) | O=c1cc(-c2ccc(O)cc2)oc2cc(O)cc(O)c12 [APIGENIN]
2 | 60 (≈ 210 µM) | O=c1c(O)c(-c2ccccc2O)oc2cc(O)cc(O)c12 [DATISCETIN]
3 | 30 (≈ 111 µM) | O=c1c(O)c(-c2ccccc2)oc2cc(O)cc(O)c12 [GALANGIN]
4 | 400 (≈ 925 µM) | C[C@H]1O[C@H](Oc2c(-c3ccc(O)cc3)oc3cc(O)cc(O)c3c2=O)[C@@H](O)[C@@H](O)[C@@H]1O [KAEMPFEROL-3-O-RHAMNOSIDE]
5 | 8 (≈ 27.9 µM) | O=c1c(O)c(-c2ccc(O)cc2)oc2cc(O)cc(O)c12 [KAEMPFEROL]
6 | 50 (≈ 165 µM) | O=c1c(O)c(-c2ccc(O)cc2O)oc2cc(O)cc(O)c12 [MORIN]
7 | 5 (≈ 18.5 µM) | O=c1c(O)c(-c2ccc(O)cc2)oc2cc(O)ccc12 [RESOKAEMPFEROL]

Further lines, the compound ahead of its results:

Row | SMILES | IC50 [µg/mL]
8 | O=c1c(O[C@H]2OC[C@@H](O)[C@@H](O)[C@@H]2O)c(-c2ccc(O)cc2)oc2cc(O)cc(O)c12 | 200 (≈ 478 µM)
9 | Cc1cc(O)c2c(c1)C(=O)c1cc(O)cc(O)c1C2=O [EMODIN] | 10 (≈ 37 µM)
10 | COc1ccc(-c2oc3cc(O)cc(O)c3c(=O)c2O)cc1 [KAEMPFERIDE] | 30 (≈ 99.9 µM)
11 | O=c1cc(-c2ccc(O)c(O)c2)oc2cc(O)cc(O)c12 [LUTEOLIN] | 4 (≈ 14 µM)
12 | O=c1c(O)c(-c2cc(O)c(O)c(O)c2)oc2cc(O)cc(O)c12 [MYRICETIN] | 10 (≈ 31.4 µM)
13 | O=c1c(O)c(-c2ccc(O)c(O)c2)oc2cc(O)cc(O)c12 [QUERCETIN] | 8 (≈ 26.5 µM)

From ChEMBL document CHEMBL1148171, “Flavonoids from Koelreuteria henryi and other sources as protein-tyrosine kinase inhibitors” (J Nat Prod, 1993)
